Data from patent US10364245B2 (CHIESI FARMACEUTICI S.p.A., priority 2017, dated 2019).
Where a name gives a salt, the structure may show the parent alone.

Legend:
p38 alpha = target: T1, p38 alpha (Homo sapiens, UniProt Q16539); experiment: P38 alpha enzyme inhibition assay (Alphascreen kinase activity assay); format: biochemical; details: 100 pM p38 alpha, 2 hours preincubation at 25° C., 250 μM ATP, ATF-2 fusion protein; read-out: p38α inhibition
T1 construct: purchased Invitrogen PV3304
Outline: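 100 pM p38 alpha preincubated 2 h at 25 °C with compound and 0.3 μg/ml ATF-2 fusion substrate (HEPES pH 7.5, MgCl2, 1% DMSO). Reaction started with 250 μM ATP, run 1 h at 25 °C, stopped with EDTA; phospho-ATF2 detected by AlphaScreen luminescence. IC50 from concentration-response curves.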

[1] = system: Peripheral Blood Mononuclear Cells (PBMCs), TNFα release; experiment: LPS-stimulated PBMC TNFα release assay; format: cell-based; details: human PBMC, LPS (10 ng/ml), 18 h, compound 1 h before LPS; read-out: LPS-stimulated PBMC TNFα release inhibition
Outline: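 Human PBMCs from healthy donors, serum-starved 3 h, then pre-incubated 1 h at 37 °C with compound in 1% FBS medium before LPS (10 ng/ml) for 18 h. Supernatant TNFα measured by MSD; IC50 from dose-response as % inhibition of control, at least three experiments.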

T1 sequence (Q16539 whole entry, the tested form may be a part): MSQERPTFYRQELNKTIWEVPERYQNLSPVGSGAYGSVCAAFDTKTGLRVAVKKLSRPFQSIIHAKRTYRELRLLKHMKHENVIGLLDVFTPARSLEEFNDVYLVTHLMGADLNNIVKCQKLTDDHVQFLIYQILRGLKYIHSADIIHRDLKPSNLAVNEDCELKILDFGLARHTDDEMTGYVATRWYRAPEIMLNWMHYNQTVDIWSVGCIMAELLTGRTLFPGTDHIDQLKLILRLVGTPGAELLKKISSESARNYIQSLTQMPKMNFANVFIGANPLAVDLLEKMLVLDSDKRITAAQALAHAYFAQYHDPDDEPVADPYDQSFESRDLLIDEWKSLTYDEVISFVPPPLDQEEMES

`CCN(C)CCNC(=O)c1cc(NC(=O)N[C@H]2CC[C@@H](Oc3ccc4nnc(N(CC)CC)n4c3)c3ccccc32)cc(C(C)(C)C)n1` [Example 205, 6-(tert-Butyl)-4-(3-((1S,4R)-4-((3-(diethylamino)-[1,2,4]triazolo[4,3-a]pyridin-6-yl)oxy)-1,2,3,4-tetra-hydronaphthalen-1-yl)ureido)-N-(2-(ethyl(methyl)amino)-ethyl)picolinamide formate salt] was tested, and the IC50 (p38 alpha) was under 1 nM and the IC50 [1] was 1 to 5 nM.
Work on `CCC(C)(C)c1nnc2ccc(O[C@@H]3CC[C@H](NC(=O)Nc4cc(C(=O)NCCN(C)C)nc(C(C)(C)C)c4)c4ccccc43)cn12` [Example 206, 6-(tert-butyl)-N-(2-(dimethylamino)ethyl)-4-(3-((1S,4R)-4-((3-(tert-pentyl)-[1,2,4]triazolo[4,3-a]pyridin-6-yl)oxy)-1,2,3,4-tetrahydronaphthalen-1-yl)ureido)picolinamide] yielded an IC50 (p38 alpha) of under 1 nM and an IC50 [1] of 1 to 5 nM.
`CCC(CC)c1nnc2ccc(O[C@@H]3CC[C@H](NC(=O)Nc4cc(C(=O)NCCN(C)C)nc(C(C)(C)C)c4)c4ccccc43)cn12` [Example 207, 6-(tert-butyl)-N-(2-(dimethylamino)ethyl)-4-(3-((1S,4R)-4-((3-(pentan-3-yl)-[1,2,4]triazolo[4,3-a]pyridin-6-yl)oxy)-1,2,3,4-tetrahydronaphthalen-1-yl)ureido)picolinamide] showed an IC50 (p38 alpha) of under 1 nM and an IC50 [1] of under 1 nM.
`CN(CCO)CCNC(=O)c1cc(C(C)(C)C)cc(NC(=O)N[C@H]2CC[C@@H](Oc3ccc4nnc(C(C)(C)C)n4c3)c3ccccc32)n1` [Example 208, 4-(tert-butyl)-6-(3-((1S,4R)-4-((3-(tert-butyl)-[1,2,4]triazolo[4,3-a]pyridin-6-yl)oxy)-1,2,3,4-tetrahydronaphthalen-1-yl)ureido)-N-(2-((2-hydroxyethyl)(methyl)-amino)ethyl)picolinamide formate salt] gave an IC50 (p38 alpha) of under 1 nM and an IC50 [1] of over 5 nM.
`CC(C)(C)c1cc(NC(=O)N[C@H]2CC[C@@H](Oc3ccc4nnc(C(C)(C)C)n4c3)c3ccccc32)nc(C(=O)NCCN2CCCOCC2)c1` [Example 209, N-(2-(1,4-oxazepan-4-yl)ethyl)-4-(tert-butyl)-6-(3-((1S,4R)-4-((3-(tert-butyl)-[1,2,4]triazolo[4,3-a]pyridin-6-yl)oxy)-1,2,3,4-tetrahydronaphthalen-1-yl)ureido)picolinamide formate salt] showed an IC50 (p38 alpha) of under 1 nM and an IC50 [1] of under 1 nM.
In the case of `COC1CN(CCNC(=O)c2cc(C(C)(C)C)cc(NC(=O)N[C@H]3CC[C@@H](Oc4ccc5nnc(C(C)(C)C)n5c4)c4ccccc43)n2)C1` [Example 210, 4-(tert-butyl)-6-(3-((1S,4R)-4-((3-(tert-butyl)-[1,2,4]triazolo[4,3-a]pyridin-6-yl)oxy)-1,2,3,4-tetrahydronaphthalen-1-yl)ureido)-N-(2-(3-methoxyazetidin-1-yl)ethyl)picolinamide formate salt], the IC50 (p38 alpha) is reported as under 1 nM and the IC50 [1] is reported as 1 to 5 nM.
`CC(C)(C)c1cc(NC(=O)N[C@H]2CC[C@@H](Oc3ccc4nnc(C(C)(C)C)n4c3)c3ccccc32)nc(C(=O)NCCN2CCC(O)CC2)c1` [Example 211, 4-(tert-butyl)-6-(3-((1S,4R)-4-((3-(tert-butyl)-[1,2,4]triazolo[4,3-a]pyridin-6-yl)oxy)-1,2,3,4-tetrahydronaphthalen-1-yl)ureido)-N-(-(2-(4-hydroxypiperidin-1-yl)ethyl)picolinamide formate salt] gave an IC50 (p38 alpha) of under 1 nM and an IC50 [1] of over 5 nM.
In the case of `CN1CCC[C@@]1(C)c1nnc2ccc(O[C@@H]3CC[C@H](NC(=O)Nc4cc(NS(C)(=O)=O)nc(C(C)(C)C)c4)c4ccccc43)cn12` [Example 212, N-(6-(tert-Butyl)-4-(3-((1S,4R)-4-((3-((S)-1,2-dimethylpyrrolidin-2-yl)-[1,2,4]triazolo[4,3-a]pyridin-6-yl)oxy)-1,2,3,4-tetrahydronaphthalen-1-yl)ureido)pyridin-2-yl)methanesulfonamide], the IC50 (p38 alpha) is reported as under 1 nM and the IC50 [1] is reported as 1 to 5 nM.
For `CCS(=O)(=O)Nc1cc(NC(=O)N[C@H]2CC[C@@H](Oc3ccc4nnc([C@]5(C)CCCN5C)n4c3)c3ccccc32)cc(C(C)(C)C)n1` [Example 213, N-(6-(tert-Butyl)-4-(3-((1S,4R)-4-((3-((S)-1,2-dimethylpyrrolidin-2-yl)-[1,2,4]triazolo[4,3-a]pyridin-6-yl)oxy)-1,2,3,4-tetrahydronaphthalen-1-yl)ureido)pyridin-2-yl)ethanesulfonamide], the IC50 (p38 alpha) was under 1 nM and the IC50 [1] was 1 to 5 nM.
`CN(C)CCNC(=O)c1nc(NC(=O)N[C@H]2CC[C@@H](Oc3ccc4nnc([C@@H]5COCCN5C)n4c3)c3ccccc32)cc(C(C)(C)C)n1` [Example 214, 4-(tert-Butyl)-N-(2-(dimethylamino)ethyl)-6-(3-((1S,4R)-4-((3-((R)-4-methylmorpholin-3-yl)-[1,2,4]triazolo[4,3-a]pyridin-6-yl)oxy)-1,2,3,4-tetrahydronaphthalen-1-yl)ureido)pyrimidine-2-carboxamide] gave an IC50 (p38 alpha) of 1 to 10 nM and an IC50 [1] of over 5 nM.
Compound `CN(CCO)CCNC(=O)c1nc(NC(=O)N[C@H]2CC[C@@H](Oc3ccc4nnc([C@@H]5COCCN5C)n4c3)c3ccccc32)cc(C(C)(C)C)n1` [Example 215, 4-(tert-Butyl)-N-(2-((2-hydroxyethyl)(methyl)amino)ethyl)-6-(3-((1S,4R)-4-((3-((R)-4-methylmorpholin-3-yl)-[1,2,4]triazolo[4,3-a]pyridin-6-yl)oxy)-1,2,3,4-tetrahydronaphthalen-1-yl)ureido)pyrimidine-2-carboxamide] has an IC50 (p38 alpha) of 1 to 10 nM and an IC50 [1] of over 5 nM.
